Assay results as given in patent US7544666B2, “NAP derivatives” (Industrial Technology Research Institute, priority 2005, dated 2009).

Tests used:
[1] = test system: scopolamine-induced amnesia rats; assay: Morris water maze in scopolamine-induced amnesia rats; format: in vivo, rat; conditions: 0.25 mg/kg subcutaneous, 5 min after scopolamine 1 mg/kg i.p.; FIG. 11
Procedure: Scopolamine-induced amnesia […] were used in combination of Morris water maze, a memory and behavior analysis system, to assess the in vivo effects of the NAP derivative BMEC-NAP0701 and NAP.
Sprague-Dawley male rats with body weight of 220-250 g obtained from the National Laboratory Animal Center, Taiwan, were caged in an air-conditioned housing with a temperature of 23±1° C. and kept on an alternating 12-hour light and 12-hour dark schedule with sufficient feed and water. […]
Morris Water Maze was performed with a water maze device containing a stainless pool with a size of 160 cm in diameter, 50 cm in height, and 15 mm in thickness of the wall and a platform with a size of 11 cm in diameter, and 22 cm in height. […] The swimming time and track were recorded by VEDEOMEX-V video tracing system, video recorder, and monitor (Columbus Instruments) and analyzed by Water Maze Program (Columbus Instruments). […]
Late of the third day: Two to four hours after the third day training, the platform was removed from the pool. The trained rats were separately sent to quadrant I and the swimming track was recorded for 60 sec. The time spent in finding the original platform was also recorded. […]
Early of the fifth day: The platform was placed in the quadrant II and submerged beneath water level about 1 cm. The rats were separately sent to quadrant I and the time spent in finding the platform was recorded. […]

[2] = Stability in Hanks' balanced salt solution (HBSS); format: physicochemical; conditions: 37° C., relative to initial conc. in HBSS = 100.00
Method in brief: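 Compounds at 500 μM initial concentration were incubated 4 h at 37 °C in HBSS alone or on the apical side of Caco-2 monolayers (cultured 18–26 days, TEER over 350 Ω×cm^2). Apical and basolateral levels were quantified by reverse-phase HPLC at 210 nm against the initial concentration.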

PC12 cells = assay: Neural protection in H2O2/PC12 cell system (MTT); format: cell-based; conditions: 500 μM H2O2-induced PC12 cytotoxicity
Procedure: The neural protection of NAP and the NAP derivatives prepared in EXAMPLE 1 were measured by H2O2/PC12 cell system. PC12 cells (4×10^4 cells) were seeded into a 96-well plate and incubated for 24 hours. NAP and the NAP derivatives prepared in EXAMPLE 1 at different concentration were added into the plate and incubated at 37° C. for 4 hours. Hydrogen peroxide with a concentration of 500 μM was then added to induce cytotoxicity. After 24 hours, supernatants were discarded and MTT [3-(4,5-dimethylthiazol-2-yl)-2,5-diphenyltetrazolium bromide] solution (0.5 mg/ml) was added for 4-hour reaction at 37° C. One hundred and fifty μl of DMSO was added to solve formazan product. Absorbance was measured by Microplate Reader at 570 nm, and cell viability was calculated. […] FIGS. 3 to 8 show the cell protection of the NAP derivatives from H2O2-induced PC12 cytotoxicity.

Conc. after 4-hour in HBSS [2]: 99.21
SMILES: CC[C@H](C)[C@H](NC(=O)[C@H](CO)NC(=O)[C@@H](NC(=O)[C@@H]1CCCN1C(=O)[C@H](C)NC(=O)[C@@H](N)CC(N)=O)C(C)C)C(=O)N1CCC[C@H]1C(=O)N[C@@H](CCC(N)=O)C(=O)O [BMEC-NAP, H-NAPVSIPQ-OH, reference compound]
memory improving effect (time spent in finding the platform vs scopolamine-induced rats) [1]: memory improving effect in vivo
concentration level at which cell viability was increased (PC12 cells): picomolar (i.e. 10^−12) level
concentration level of cell protection effect (PC12 cells; 4 h pre-incubation): femtomolar (i.e. 10^−15) level
